From US20210113529A1, “MEDICINE FOR PREVENTING OR TREATING OPHTHALMIC DISEASE ASSOCIATED WITH ENHANCED INTRAOCULAR NEOVASCULARIZATION AND/OR INTRAOCULAR VASCULAR PERMEABILITY” (KYOTO UNIVERSITY, priority 2018, published 2021)
Values belong to the molecule of their own block, whether it stands above or below them.

How the values were obtained:
S1P1 receptor = S1P1 receptor (Homo sapiens, UniProt P21453); experiment: GTP[γ35S] binding assay, S1P1 receptor agonist activity
S1P3 receptor = S1P3 receptor (Homo sapiens, UniProt Q99500); experiment: GTP[γ35S] binding assay, S1P3 receptor agonist activity; format: biochemical
Chain of S1P3 receptor (Q99500 whole entry): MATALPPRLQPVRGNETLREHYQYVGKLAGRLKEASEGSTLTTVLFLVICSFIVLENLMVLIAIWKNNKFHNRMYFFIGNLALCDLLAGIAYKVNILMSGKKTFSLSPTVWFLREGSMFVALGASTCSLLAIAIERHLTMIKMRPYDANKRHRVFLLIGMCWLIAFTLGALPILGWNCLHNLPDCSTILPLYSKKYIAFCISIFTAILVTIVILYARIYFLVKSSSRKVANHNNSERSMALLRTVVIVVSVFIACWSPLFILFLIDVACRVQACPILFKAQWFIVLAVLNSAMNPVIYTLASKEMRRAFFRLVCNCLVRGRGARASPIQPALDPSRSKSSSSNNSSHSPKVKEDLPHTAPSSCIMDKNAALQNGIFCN

[1] = test system: human retinal vascular endothelial cells (HRMECs); experiment: Permeability of human retinal vascular endothelial cells (Transwell, FITC-dextran); format: cell-based; conditions: HRMECs in Transwell; 0.3 nM, 3 nM or 30 nM; 60 minutes pre-culture, 60 minutes after FITC-dextran (40 kDa)
Procedure: The upper chamber of Transwell (diameter: 6.5 mm, pore size: 0.4 μm: Corning Incorporated) coated with collagen and fibronectin was seeded with human retinal vascular endothelial cells (HRMECs) (Cell Systems) at a cell density of 5×10^4 cells/well, and the cells were cultured in Endothelial Cell Growth Medium MV 2 (PromoCell GmbH) under a 5% CO2 atmosphere at 37° C. for 6 days. Then, to the upper chamber and lower chamber of the Transwell, Compound 1 at a final concentration of 0 nM, 0.3 nM, 3 nM, or 30 nM, which had been prepared using 0.001% dimethyl sulfoxide-containing Endothelial Cell Growth Medium MV 2 as a vehicle, was added, and culture was continued. A well to which only the vehicle was added was used as a control. After 60 minutes of culture, 1 mg/mL of fluorescein isothiocyanate (FITC)-dextran (40 kDa: Sigma-Aldrich) was added to the upper chamber of the Transwell, and 60 minutes later, the fluorescence intensity of the medium in the lower chamber was measured to measure the amount of FITC-dextran permeating the lower chamber.

Body weight in CNV model = format: in vivo, mice; conditions: oral once daily dosing, vs vehicle group
Text: A case in which FA was unable to be performed owing to cloudiness caused by a flaw in the eye produced before the FA evaluation and a case in which CNV was connected at the time of the evaluation of the area of CNV were excluded from analysis, and the above-mentioned results were each calculated as a mean of 11 or 12 mice in each group. […] A case in which FA was unable to be performed owing to cloudiness caused by a flaw in the eye produced before the FA evaluation and a case in which CNV was connected at the time of the evaluation of the area of CNV were excluded from analysis, and the above-mentioned results were each calculated as a mean of 12 mice in each group.

[2] = test system: laser-induced choroidal neovascularization (CNV) model; experiment: Laser-induced CNV model: fluorescein angiography (FA) grade; format: in vivo, mice; conditions: 0.3 mg/kg orally once daily; Day 14 (Comparative Example 1)
Procedure: A Mydrin-P ophthalmic solution (Santen Pharmaceutical Co., Ltd., Mydrin is a trademark) was dropped into the right eye of 8-week-old mice (Japan SLC, Inc., C56BL/6J strain) to cause mydriasis. A solution obtained by diluting a 7:1 mixed anesthetic solution of ketamine and xylazine 10-fold with physiological saline was administered at 10 mL/kg into the femoral muscle. After that, a 0.1% Hyalein (trademark) ophthalmic solution (Santen Pharmaceutical Co., Ltd.) was dropped into the eye so as to prevent the eyeball from drying. […]
Sampling was performed on the 14th day after the laser irradiation. The mice were anesthetized with 10 mL/kg of a solution obtained by diluting a 7:1 mixed anesthetic solution of ketamine and xylazine 10-fold with physiological saline, and then 0.1 mL of a 10-fold dilution of fluorescein (Alcon Japan Ltd.) was administered into the tail vein of the mice, followed by fluorescence fundus photography using Micron 4 (Phoenix Research Laboratories, Inc. Pleasanton, Calif., USA).
In FIG. 1 (a), Day 0 indicates images taken on the day of the laser irradiation, and Day 14 indicates images taken on the 14th day. In addition, for the image of each group on Day 14, an FA grade was determined for each laser irradiation site in accordance with grade criteria shown in Table 1 to evaluate the leakage of a fluorescent dye from a neovascularization site. […]

[3] = test system: laser-induced choroidal neovascularization (CNV) model; experiment: Laser-induced CNV model: area of CNV in choroidal flat mount; format: in vivo, mice; conditions: 0.3 mg/kg orally once daily; Day 14 (Comparative Example 1; BZ-X710, Image J)
Procedure: After fluorescence fundus photography had been performed as described above in the section (1), 0.5 mL of fluorescein isothiocyanate dextran (FITC-dextran; 20 mg/mL, Sigma-Aldrich) was administered into the tail vein of the mice. The mice were euthanized by cervical dislocation, and the eyeball was extirpated. The extirpated eyeball was fixed in a 4% paraformaldehyde phosphate buffer for 12 hours. After that, the cornea and lens were excised under a microscope, and the remaining vitreous artery was removed with forceps. Further, the retina was removed, and the choroid was notched 8 points and embedded with Fluoromount (Diagnostic BioSystems) in a flat state to generate a choroidal flat mount specimen. The choroidal flat mount was photographed using a confocal laser scanning microscope (FLUOVIEW FV10i; Olympus, Tokyo, Japan). Next, on the basis of the photographed image, the CNV was encircled using analysis software OLYMPUS FLUOVIEW FV10i (Olympus), and the area thereof was determined as the area of CNV (μm^2). All analyses were performed in a blinded manner. After fluorescence fundus photography had been performed as described above in the section (1), a choroidal flat mount specimen was generated by the same method as in Example 1. The choroidal flat mount was photographed using an all-in-one fluorescence microscope (BZ-X710; Keyence, Osaka, Japan). Next, on the basis of the photographed image, the CNV was encircled using image editing software Image J, and the area thereof was determined as the area of CNV (μm^2). All analyses were performed in a blinded manner.

S1P4 receptor = molecular target: T1, S1P4 receptor (Homo sapiens, UniProt O95977); conditions: GTP[γ35S] binding assay; report PLoS One, 2014, 9(10), e110819; read-out: EC50 for S1P4 receptor agonist activity; cited from earlier work
T1 sequence (O95977 1-384): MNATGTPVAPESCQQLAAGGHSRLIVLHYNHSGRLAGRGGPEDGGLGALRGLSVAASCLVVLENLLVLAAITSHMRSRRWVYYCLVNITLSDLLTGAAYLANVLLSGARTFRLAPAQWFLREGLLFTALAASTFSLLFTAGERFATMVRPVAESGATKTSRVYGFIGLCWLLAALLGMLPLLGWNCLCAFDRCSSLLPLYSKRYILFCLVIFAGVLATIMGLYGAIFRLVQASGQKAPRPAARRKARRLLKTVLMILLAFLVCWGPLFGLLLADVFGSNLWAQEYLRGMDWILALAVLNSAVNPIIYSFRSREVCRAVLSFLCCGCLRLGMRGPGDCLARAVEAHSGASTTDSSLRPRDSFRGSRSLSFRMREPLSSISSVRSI

Chain of S1P1 receptor (P21453 whole entry): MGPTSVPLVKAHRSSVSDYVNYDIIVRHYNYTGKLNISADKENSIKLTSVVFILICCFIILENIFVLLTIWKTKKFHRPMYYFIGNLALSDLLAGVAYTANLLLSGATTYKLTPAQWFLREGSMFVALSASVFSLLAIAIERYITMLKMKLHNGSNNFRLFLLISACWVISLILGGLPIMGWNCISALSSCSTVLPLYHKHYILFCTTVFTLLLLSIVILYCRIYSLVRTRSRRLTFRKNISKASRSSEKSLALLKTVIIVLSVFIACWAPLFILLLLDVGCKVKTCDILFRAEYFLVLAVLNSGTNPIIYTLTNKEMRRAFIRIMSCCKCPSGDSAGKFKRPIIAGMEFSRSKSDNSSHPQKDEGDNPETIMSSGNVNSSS

- EC50 (S1P1 receptor): 13.4 nM
- EC50 (S1P3 receptor): 1760 nM
- EC50 for S1P3 receptor agonist activity as compared to that for the S1P1 receptor (S1P3 receptor): ≥ 100 fold
SMILES: Cl.O=C(O)C1CCN(CC2=Cc3ccc(OCc4ccc(OCC(F)(F)F)c(C(F)(F)F)c4)cc3OC2)CC1 [Compound 2, 1-[(7-{[4-(2,2,2-trifluoroethoxy)-3-(trifluoromethyl)phenyl]methoxy}-2H-1-benzopyran-3-yl)methyl]piperidine-4-carboxylic acid monohydrochloride]
- amount of FITC-dextran permeating the lower chamber (fluorescence intensity) [1]: significantly decreased the amount of FITC-dextran permeating the lower chamber

SMILES: CCc1cc(/C(C)=N/OCc2ccc(C3CCCCC3)c(C(F)(F)F)c2)ccc1CN1CC(C(=O)O)C1 [Compound 3, 1-({4-[(1E)-N-{[4-cyclohexyl-3-(trifluoromethyl)phenyl]methoxy}ethanimidoyl]-2-ethylphenyl}methyl)azetidine-3-carboxylic acid]
- amount of FITC-dextran permeating the lower chamber (fluorescence intensity) [1]: significantly decreased the amount of FITC-dextran permeating the lower chamber

SMILES: CC(C)Oc1ccc(-c2nc(-c3cccc4c3CC[C@@H]4NCCO)no2)cc1C#N [Compound 4, 5-(3-{(1S)-1-[(2-hydroxyethyl)amino]-2,3-dihydro-1H-inden-4-yl}-1,2,4-oxadiazol-5-yl)-2-[(propan-2-yl)oxy]benzonitrile]
- amount of FITC-dextran permeating the lower chamber (fluorescence intensity) [1]: significantly decreased the amount of FITC-dextran permeating the lower chamber

SMILES: CCC/N=C1\S/C(=C\c2ccc(OC[C@H](O)CO)c(Cl)c2)C(=O)N1c1ccccc1C [Compound 5, (2Z,5Z)-5-({3-chloro-4-[(2R)-2,3-dihydroxypropoxy]phenyl}methylidene)-3-(2-methylphenyl)-2-(propylimino)-1,3-thiazolidin-4-one]
- amount of FITC-dextran permeating the lower chamber (fluorescence intensity) [1]: significantly decreased the amount of FITC-dextran permeating the lower chamber

SMILES: O=C(O)C[C@H]1CCc2c1[nH]c1ccc(OCc3ccc(C4CCCC4)c(C(F)(F)F)c3)cc21 [Compound 6, [(3R)-7-{[4-cyclopentyl-3-(trifluoromethyl)phenyl]methoxy}-1,2,3,4-tetrahydrocyclopenta[b]indol-3-yl]acetic acid]
- amount of FITC-dextran permeating the lower chamber (fluorescence intensity) [1]: significantly decreased the amount of FITC-dextran permeating the lower chamber

SMILES: NC(CO)(CCc1ccc(Sc2cccc(OCc3ccccc3)c2)cc1Cl)COP(=O)(O)O (stereo not shown) [Compound 7, 2-amino-4-(4-{[3-(benzyloxy)phenyl]sulfanyl}-2-chlorophenyl)-2-(hydroxymethyl)butyl dihydrogen phosphate]
- amount of FITC-dextran permeating the lower chamber (fluorescence intensity) [1]: significantly decreased the amount of FITC-dextran permeating the lower chamber

SMILES: CCCCCCCCc1ccc(CCC(N)(CO)CO)cc1.Cl [FTY720, 2-amino-2-[2-(4-octylphenyl)ethyl]propane-1,3-diol monohydrochloride, reference compound]
- change in body weight between the groups before sampling (Body weight in CNV model): a significant change in body weight between the groups before sampling was not found
- FA grade as compared to the vehicle group [2]: a significant lowering in FA grade was not found
- area of CNV [3]: not found to significantly decrease the area of CNV

SMILES: CCCCCCCCc1ccc(CCC(N)(CO)COP(=O)(O)O)cc1 (stereo not shown) [FTY720-P, 2-amino-2-(hydroxymethyl)-4-(4-octylphenyl)butyl dihydrogenphosphate, reference compound]
- EC50 (S1P4 receptor): 2.2 nM
